Data: the METLIN SMRT retention time set (Domingo-Almenara et al. 2019)

Experiment: gradient 5% acetonitrile 3 min, to 50% in 2 min, to 85% in 15 min, held 3 min, 100 µL/min
Conditions: column: Zorbax Extend-C18 2.1 x 50 mm; eluents: water / acetonitrile, 0.1% formic acid
In short: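 Pure standards were run in mixtures of ~100 molecules by HPLC coupled to a quadrupole time-of-flight mass spectrometer. The column was a Zorbax Extend-C18 (2.1 × 50 mm, 1.8 μm) at 100 μL/min, with water and acetonitrile each containing 0.1% formic acid, in positive and negative ionization mode. Dead and dwell volumes were 40 μL and 900 μL. Retention time was taken from computationally picked adduct peaks, each manually inspected, with data collected over 3 months.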

Row | Compound | RP-LC retention time
1 | Cc1ccc(-c2nc3cnccn3c2Nc2ccc(Br)cc2)cc1 | 1030 s
2 | Cc1nc2c(sc3nc(-c4ccccc4)ccc32)c(=O)n1CC(=O)NCc1cccs1 | 750 s
3 | CCC(C)NC(=O)C1CCCN1S(=O)(=O)c1cc2c(cc1C)NC(=O)CO2 (centres undefined) | 710 s
4 | COc1ccc(Nc2nc(C(=O)N3c4ccccc4CC3C)cs2)cc1OC (centres undefined) | 854 s
5 | CCCN1C(=O)COc2ccc(-c3noc(-c4ccc(C(F)(F)F)cc4)n3)cc21 | 1050 s
6 | Cc1cccc(Sc2nccnc2N2CCC(C(=O)NCc3ccccc3)CC2)c1 | 1060 s
7 | CN(C)c1ccc(CNC(=O)CCCN2C(=O)CCn3nc(-c4cccn4C)cc32)cc1 | 610 s
8 | CSc1ccc(-c2noc(-c3nnn4c3COC(c3ccc(C)cc3C)C4)n2)cc1 (centres undefined) | 1360 s
9 | CCc1ccc(NC(=O)N2CCCC(C)(C(=O)NCc3ccc(C)cc3)C2)cc1 (centres undefined) | 1040 s
10 | CCCN(C)C(=O)c1c(C)oc2c1CN(C(=O)CC)CC2 | 652 s
11 | O=C(Cc1cccnc1)N1CCC(c2nc(-c3ccncc3)no2)C1 (centres undefined) | 548 s
12 | COc1cccc(NC(=O)Nc2cc3c(cc2Oc2ccccc2)n(C)c(=O)n3C)c1 | 804 s
13 | COc1cc(NC(=O)c2c(C)oc3nc(C)nc(N4CCOCC4)c23)cc(OC)c1 | 804 s
14 | FCCN(CCF)c1cccc(Cl)c1 | 1060 s
15 | Cc1noc(C)c1-c1ccc(S(=O)(=O)N2CCC(C)CC2)cc1 | 1020 s
16 | Cc1cc(=O)n(CC(=O)Nc2ccccc2C)c(N2CCOCC2)n1 | 657 s
17 | Cc1ccc(N(C)S(=O)(=O)c2ccccc2-c2nc(-c3ccccc3)no2)cc1 | 1200 s
18 | O=c1ccc(N2CCC(NS(=O)(=O)c3ccccc3Cl)CC2)nn1CC1CC1 | 747 s
19 | CC(C)c1noc(-c2ccc(-n3cnc(C(=O)NC(C)c4ccc(F)cc4)c3)nc2)n1 (centres undefined) | 1020 s
20 | CCCOc1nccnc1N1CCC(NC(=O)Cc2cccnc2)C1 (centres undefined) | 671 s
21 | COc1ccc(NC(=O)C2CCc3nc(N4CCOCC4)ncc3C2)cc1C(F)(F)F (centres undefined) | 858 s
22 | O=C(Nc1ccccc1C(F)(F)F)N1CCC(N2CCN(Cc3cccc(F)c3)C(=O)C2=O)CC1 | 829 s
23 | CS(=O)(=O)N1C[C@H]2CCN(Cc3ccc(Cl)cc3F)C[C@H]21 | 599 s

Row | Compound | RP-LC retention time
24 | CC(C)Cn1c(CCNC(=O)c2ccccc2F)nc2cccnc21 | 698 s
25 | Cc1cc(C)cc(Nc2c(-c3ccc(N4CCOCC4)cc3)nc3cnccn23)c1 | 895 s
26 | CC(C)n1cnc(S(=O)(=O)N2CCCC(C(=O)Nc3ccc(F)c(Cl)c3)C2)c1 (centres undefined) | 848 s
27 | Cc1ccc(-n2ncc3c(NCCCN(C)C)ncnc32)cc1Cl | 670 s
28 | Cc1cc(C)cc(NC(=O)N2CCC(n3cnc4ccc(Cl)cc4c3=O)CC2)c1 | 817 s
29 | Cc1nn(C)c(C)c1S(=O)(=O)N1CCC(Cc2nc(-c3cccnc3)n[nH]2)C1 (centres undefined) | 598 s
30 | CN1CCN(CC/C=C2/c3ccccc3Sc3ccc(S(=O)(=O)N(C)C)cc32)CC1 | 752 s
31 | O=C(Cn1ncc2c(N3CCN(c4ccccn4)CC3)ncnc21)Nc1ccc(F)cc1F | 615 s
32 | CCc1nc(-c2csc(S(=O)(=O)N3CCCC(C(=O)Nc4cccnc4)C3)c2)no1 (centres undefined) | 678 s
33 | Cc1cccc(NC(=O)CSc2nnc(NC(=O)CN(C)S(C)(=O)=O)s2)c1C | 618 s
34 | O=C(N[C@H]1C[C@@H]2C[C@H]1CN2C(=O)Nc1ccc2c(c1)OCCO2)c1ccccc1 | 937 s
35 | COc1ccccc1CNC(=O)C1CCCN(c2nnc3ccc(Cl)cn23)C1 (centres undefined) | 683 s
36 | COc1ccc(OC)c(NC(=O)COc2cc(C(C)(C)C)nn2-c2nc(C)cc(C)n2)c1 | 881 s
37 | Cc1ccccc1NC(=O)N1CCC(c2cc3n(n2)CCCN(C)C3=O)CC1 | 660 s
38 | CN(C)c1ccc(CNC(=O)CCC(=O)N2CCCn3nc(-c4cccn4C)cc32)cc1 | 599 s
39 | COc1ccc(C)cc1NC(=O)c1nc(-c2cn(Cc3ccc(F)cc3)nn2)no1 | 961 s
40 | Cc1nnc(-c2c(S(=O)(=O)NC3CCCCC3)c(C)n(C)c2C)o1 | 814 s
41 | Cc1cccc2sc(NC(=O)CNC(=O)c3ccc(=O)[nH]c3)nc12 | 613 s
42 | Cc1cc(-c2nnc(-c3ccccc3)o2)c(C)n1CC(=O)NCc1ccco1 | 826 s
43 | CCCc1cc(N2CCN(c3ccccn3)CC2)n2nc3nc(C)cc(C)c3c2n1 | 615 s
44 | CCOc1ccccc1CNC(=O)c1cc(NC(C)=O)cc2nc(C)ccc12 | 653 s
45 | O=C(Cn1ccn2nc(-c3ccc(F)cc3)c(CO)c2c1=O)Nc1ccc(Cl)cc1 | 880 s
46 | Cc1cccc(N2CCN(C(=O)C3CCN(C(=O)C4Sc5ccccc5NC4=O)CC3)CC2C)c1 (centres undefined) | 725 s

Row | Compound | RP-LC retention time
47 | O=C(Nc1ccccc1F)C1CC(=O)N(CCc2c[nH]c3ccc(F)cc23)C1 (centres undefined) | 790 s
48 | Fc1ccc(OCc2nc(-c3cccc(-c4csc(C5CC5)n4)c3)no2)cc1 | 1290 s
49 | CC(C)CN1CCCCc2cc(C(N)=O)sc21 | 829 s
50 | CC(C)CCNC(=O)c1nnc(-c2ccc(S(=O)(=O)N3CCCCC3)cc2)o1 | 1030 s
51 | NS(=O)(=O)c1ccc(CCNC(=O)c2nc(CCS(=O)(=O)c3ccccc3)no2)cc1 | 692 s
52 | CCC(=O)Nc1ccc(-c2nc(-c3ccc(Cl)cc3)no2)cc1 | 1130 s
53 | O=C(CSCc1ccccc1)Nc1ccccc1Cl | 978 s
54 | Clc1cccc(-c2ccc(CNCCCn3ccnc3)o2)c1 | 588 s
55 | O=C(NCc1ccc2c(c1)OCO2)c1nn(-c2ccccc2)c2ccccc2c1=O | 831 s
56 | O=C(CCn1nnc2cc(-c3noc(Cc4ccc(F)cc4)n3)ccc21)N1CCCC1 | 860 s
57 | Cc1cc(NC(C)C)n2nc(-c3ccc(C(C)(C)C)cc3)nc2n1 | 988 s
58 | CCn1c(=O)c2c(nc3n2CC(C)CN3C2CCCCC2)n(C)c1=O (centres undefined) | 828 s
59 | Cc1ccc(CNS(=O)(=O)c2cc(-c3cc(C(F)(F)F)on3)sc2C)cc1 | 1230 s
60 | CCN1c2ccccc2C(=O)NC12CCN(C(=O)c1cccc(F)c1)CC2 | 742 s
61 | COc1c(C=O)c(O)cc2c1C(=O)c1ccccc1C2=O | 967 s
62 | COc1cc(OC)cc(-c2nc(NC(=O)C3CCCN(c4cnc5ccccc5n4)C3)n[nH]2)c1 (centres undefined) | 1020 s
63 | COc1ccc(Cl)cc1NC(=O)Cn1c(C)nc2c(sc3nc(-c4ccccc4)ccc32)c1=O | 1180 s
64 | O=C(C1CCCCC1)N1CCN(c2nnc3ccc(C(F)(F)F)cn23)CC1 | 817 s
65 | N=C(N)c1ccc2cc(OC(=O)c3ccc(N=C(N)N)cc3)ccc2c1 | 595 s
66 | O=C(Cn1cccc1-c1nc(-c2ccc(F)cc2)no1)Nc1ccc2c(c1)OCCO2 | 944 s
67 | CCOc1cccc(C(=O)Nc2nc(-c3ccc(C(C)(C)C)cc3)cs2)c1 | 1430 s
68 | CC(C)c1ccc(NC(=O)CC2COc3ccccc3NC2=O)cc1 (centres undefined) | 872 s
69 | CCC1(CC=C2CCCCC2)C(=O)NC(=O)NC1=O | 863 s

Row | Compound | RP-LC retention time
70 | COc1ccc(-n2c(=O)c(C(=O)NC(C)c3ccccc3)c(O)c3cccnc32)cc1 (centres undefined) | 1180 s
71 | CC(C)Cn1nc(CNC(=O)c2ccoc2)c2ccccc21 | 846 s
72 | Cc1cnnn1-c1ccc(C(=O)Nc2nccs2)cc1 | 623 s
73 | Cc1ccc(C)c(-n2ccn(Cc3nc(-c4ccc(F)cc4)no3)c(=O)c2=O)c1 | 910 s
74 | C=CCn1nnnc1SCC(=O)Nc1ccc(C(=O)OC)cc1 | 701 s
75 | CS(=O)(=O)Nc1ccc(C2(C(=O)NC3CCCC3)CCCCC2)cc1 | 634 s
76 | O=C([C@@H]1C[C@H](F)CN1C(=O)c1ccccc1F)N1CCCCC1 | 677 s
77 | Cc1nn2c(CNC(=O)C3CCN(C(=O)c4ccccc4)CC3)c(C)nc2s1 | 584 s
78 | COc1ccc(S(=O)(=O)N2CCCC(C(N)=O)C2)cc1OC (centres undefined) | 640 s
79 | Cc1cc(C)n(-c2cc(N3CCCC(C(=O)Nc4nnc(C)s4)C3)ncn2)n1 (centres undefined) | 717 s
80 | Cc1cc(F)ccc1NC(=O)Cn1cccc1-c1nnc(C2CCC2)o1 | 916 s
81 | O=C(NCCc1ccccc1)C(=O)NCC1OCCc2ccccc21 (centres undefined) | 946 s
82 | O=C(Nc1nc2c(s1)CCCC2)c1cccc(C(F)(F)F)c1 | 1030 s
83 | COc1ccc(NC(=O)COc2nc(C)nc3ccccc23)c(OC)c1 | 708 s
84 | Cn1cnc(S(=O)(=O)N2CCC(C(=O)NC3CCCc4ccccc43)CC2)c1 (centres undefined) | 728 s
85 | O=C(CN1c2ccc(F)cc2-c2ccccc2S1(=O)=O)NCCc1ccccc1 | 960 s
86 | C=C[C@H]1CN2CCC1C[C@@H]2C(O)c1ccnc2ccccc12 (some centres undefined) | 576 s
87 | COc1cccc(C(=O)N2CCN(S(=O)(=O)c3cc4c5c(c3)CCC(=O)N5CCC4)CC2)c1 | 770 s
88 | Cn1nc(-c2nnc(-c3ccccc3)o2)c2c1CCN(S(=O)(=O)c1ccccc1C(F)(F)F)C2 | 990 s
89 | COc1cccc(-c2noc(CCn3nc(-c4ccc(Cl)cc4)ccc3=O)n2)c1OC | 1010 s
